Legend:
[1] = tested on: lower urinary tract obstruction model of rats; test: Test Example 1: urination function in female rat lower urinary tract obstruction model (cystometry, tissue wet weights, survival); format: in vivo; conditions: 2 weeks
Text: A lower urinary tract obstruction model of rats was used as a test system. A test substance was orally administered to the lower urinary tract obstruction model repeatedly over two (2) weeks to examine the action on the urination function in the lower urinary tract obstruction model.
More specifically, the rats (female, Crl:CD(SD), 8-week-old; Charles River Laboratories Japan, Inc.) were operated to form lower urinary tract obstruction and repeatedly received oral administration of the test substance at a frequency of once a day over two (2) weeks. After the completion of the administration, each rat was subjected to bladder catheterization under anesthesia, cystometry under no anesthesia, then cystometry under urethane anesthesia, and euthanasia under deep anesthesia, and the tissues (bladder, kidney) of the rat were extracted or surgically removed. As a normal group, the rats without operation for forming lower urinary tract obstruction were used.
The test system, the test substances, and the dosage are as follows. • Normal group: 0.5 v/v. Polysorbate 80 solution, 10 mL/kg (n=6) • Solvent group (control group): 0.5 v/v % Polysorbate 80 solution, 10 mL/kg (n=15) • Group A: Compound A, 10 mg/kg (n=15) • Group B3: Compound B, 3 mg/kg (n=7) • Group B10: Compound B, 10 mg/kg (n=7)
The residual urine volume, the urination efficiency, and the bladder capacity were measured as follows.
After urination, the residual urine was aspirated from the outlet end of the catheter placed in the bladder to measure the volume (mL) of the residual urine.
After urination, the weight of the voided urine was measured to determine the voided volume (g=mL), and then the urination efficiency was calculated by the following equation: Urination efficiency (%)=[(Voided volume (mL))/(Voided volume (mL)+Residual urine volume (mL))]×100 [Bladder Capacity]
The bladder capacity was calculated from the voided volume and the residual urine volume by the following equation: Bladder capacity(mL)=Voided volume (mL)+Residual urine volume (mL)
Moreover, the wet weight of the extracted bladder and that of the extracted kidney were measured.

[2] = tested on: model of a urination disorder associated with streptozocin-induced diabetes; test: Test Example 6: urination disorder model associated with streptozocin-induced diabetes, compound A versus dutasteride; format: in vivo, rat
Method: As described below, a model of a urination disorder associated with streptozocin-induced diabetes was prepared as a urination disorder model in accordance with Test Example 4 to evaluate the effects of the compound A and the compound C on a urination disorder. This model has no benign prostatic hyperplasia and is a model of a urination disorder associated with neuropathy and smooth muscle contraction disorder.
The body weights of Rats (male, Crl:CD(SD), 5-week-old; Charles River Laboratories Japan, Inc.) were measured. On the basis of the body weight, the rats were grouped or divided into two (2) groups. The day after the rats were grouped, a fist group received intraperitoneal administration of a citrate buffer (pH 4.5) (10 mL/kg) having a concentration of 0.1 mmol/L, and a second group received intraperitoneal administration of streptozocin (STZ; Sigma-Aldrich) (50 mg/kg). Streptozocin (STZ) was administered in the form of a solution of streptozocin having a concentration of 5 mg/mL in the citrate buffer.
About one (1) week after streptozocin (STZ) was administered, the body weight and the fasting blood glucose were measured. In the streptozocin (STZ) administration group (the second group), individuals having a fasting blood glucose level of not less than 300 mg/dL were used as animals with induced diabetes. These animals with induced diabetes are a model having no abnormality of the prostate (having no benign prostatic hyperplasia). On the basis of the body weight and the fasting blood glucose level, the animals (models) with induced diabetes were grouped or divided into three (3) groups by randomized, multivariable block allocation.
To the three model groups with induced diabetes, a 0.5 v/v % Polysorbate 80 solution (0.5% P) (10 mL/kg), the compound A (3 mg/kg), and the compound C (dutasteride) (0.3 mg/kg) were orally administered, respectively, wherein the administration schedule in all groups was a frequency of once a day, only on weekdays, over four (4) weeks. Moreover, to the above-mentioned first group, a 0.5 v/v % Polysorbate 80 solution (0.5% P) (10 mL/kg) was orally administered in the same administration schedule (normal group). On the last day of administration, a cannula was inserted into and secured to the dome of the bladder under isoflurane anesthesia, and cystometry (Cystometogram, CMG) was conducted in the order of under awake condition and under urethane anesthesia to measure the intravesical pressure, the voided volume, and the residual urine volume. After the completion of the measurement, the blood was collected under deep isoflurane anesthesia, and then the prostate (ventral prostate, dorsolateral prostate) was extracted and each was weighed. Moreover, the blood glucose level in the collected blood was measured.
The test substances and the dosage in the test system (rats having the urination disorder associated with diabetes) are as follows. • Normal group: citrate buffer 10 mL/kg (intraperitoneal administration), 0.5% P 10 mL/kg (oral administration) (n=10) • Solvent group (control group): STZ 50 mg/kg (intraperitoneal administration), 0.5% P 10 mL/kg (oral administration) (n=10) • Group A3: STZ 50 mg/kg (intraperitoneal administration), Compound A 3 mg/kg (oral administration) (n=10) • Group C0.3: STZ 50 mg/kg (intraperitoneal administration), Compound C (dutasteride) 0.3 mg/kg (oral administration) (n=10)
Urination parameter: In the same manner as in Test Example 4, the residual urine volume (mL) and the urination efficiency % were determined as urination parameters in each urination, and the average value of two measurements was taken as a measured value of each individual.
Prostate weight: In the same manner as in Test Example 4, the weight of the prostate (ventral prostate, dorsolateral prostate, and whole) was converted to a tissue weight per 100 g of the body weight. […]

[3] = tested on: uterine weight associated with rat deciduoma formation; test: Test Example 5: antiprogesterone activity, uterine weight associated with rat deciduoma formation in ovariectomized rats; format: in vivo; conditions: 192 h, Group D: 3 mg/kg oral once a day, 8 days, ovariectomized female rats, compared with solvent group, FIG. 18, read-out: inhibition rate of uterine weight increase (antiprogesterone action)
Method: For the compound A and the compound D (mifepristone), the antiprogesterone activity was measured. Specifically, a sex hormone and a test substance were repeatedly administered to ovariectomized rats as a test system to examine the antiprogesterone action (antiprogesterone activity) based on, as an index, the fluctuation of the uterine weight (the inhibitory action relative to the increase of the weight) associated with rat deciduoma formation.
More specifically, rats (female, Crl:CD(SD), 5-week-old: Charles River Laboratories Japan, Inc.) were subjected to ovariectomy, and from one (1) week after the ovariectomy, a high dose estrone or 5 μg/one animal was hypodermically administered to the rats once a day for three (3) days. From the day after one day rest period, the rats received, once a day over eight (8) days, hypodermic administration of a low dose estrone (1 μg/one animal), intramuscular administration of progesterone (6 mg/kg), and oral administration of a test substance. In the middle of the administration, on Day 4 of the start of administration, the rats were subjected to a stimulation treatment of decidualization reaction to the right uterus. The day after the final administration, the uterine weight (right uterine body) was measured (n=6). Group E was subjected to ovariectomy and a stimulation treatment of decidualization reaction but was not subjected to a hormone treatment.
The test substances and the dosage in the test system (ovariectomized rats) are as follows. • Group E: rats with ovariectomy without hormone treatment • 0.5 v/v % Polysorbate 80 solution, 10 mL/kg (n=6) • Solvent group (control group): 0.5 v/v % Polysorbate 80 solution, 10 mL/kg (n=6) • Group A3: Compound A, 3 mg/kg (n=6) • Group A10: Compound A, 10 mg/kg (n=6) • Group A30: Compound A, 30 mg/kg (n=6) • Group D: Compound D (mifepristone), 3 mg/kg (n=6)

[4] = Group C0.3: 0.3 mg/kg oral, 4 weeks, relative to solvent group

CC(=O)O[C@]1(C(C)=O)CC[C@H]2[C@@H]3C=C(Cl)C4=CC(=O)OC[C@]4(C)[C@H]3CC[C@@]21C [Compound B, 17α-acetoxy-6-chloro-2-oxa-4,6-pregnadiene-3,20-dione, reference compound]
residual urine volume ([1]; Groups B3 and B10: 3 mg/kg and 10 mg/kg oral once a day, vs control group, FIG. 1): significantly increased
urination efficiency ([1]; Groups B3 and B10: 3 mg/kg and 10 mg/kg oral once a day, vs control group, FIG. 2): reduced
bladder capacity ([1]; Groups B3 and B10: 3 mg/kg and 10 mg/kg oral once a day, vs control group, FIG. 3): significantly increased
bladder wet weight ([1]; Groups B: 3 mg/kg and 10 mg/kg oral once a day, FIG. 4): in the direction of increasing
kidney wet weight ([1]; Groups B: 3 mg/kg and 10 mg/kg oral once a day, FIG. 5): in the direction of increasing
survival rate ([1]; Groups B: 3 mg/kg and 10 mg/kg oral once a day, FIG. 6): decreased

C[C@]12C=CC(=O)N[C@@H]1CC[C@@H]1[C@@H]2CC[C@]2(C)[C@@H](C(=O)Nc3cc(C(F)(F)F)ccc3C(F)(F)F)CC[C@@H]12 [Compound C, dutasteride, reference compound]
therapeutic effect on diabetes (blood glucose level) ([2]; Group C0.3: 0.3 mg/kg oral, 4 weeks): no therapeutic effect on diabetes
Dorsolateral prostate (atrophy rate) [2, 4]: (37.5%)
Ventral prostate (atrophy rate) [2, 4]: (42.7%)
Whole prostate (atrophy rate) [2, 4]: (40.7%)
bladder contraction force on urination by nomogram analysis (distance from the origin) ([2]; Group C0.3: 0.3 mg/kg, FIG. 21): almost the same position as the solvent group
residual urine volume ([2]; Group C0.3: 0.3 mg/kg, cystometry under awake condition, vs solvent group, FIG. 19): did not statistically affect
urination efficiency ([2]; Group C0.3: 0.3 mg/kg, cystometry under awake condition, vs solvent group, FIG. 20): did not statistically affect

CC#C[C@]1(O)CC[C@H]2[C@@H]3CCC4=CC(=O)CCC4=C3[C@@H](c3ccc(N(C)C)cc3)C[C@@]21C [Compound D, mifepristone, reference compound]
inhibition at 3 mg/kg [3]: 89.5%

Reference: US12458650B2, “Urination disorder-improving agent” (ASKA Pharmaceutical Co., Ltd., priority 2019, dated 2025)
